Assays:
patients = assay: Relaxin treatment regimen with gradually decreased dosage (Example 5); format: in vivo, human; conditions: about 6 μg/kg, then dosage gradually decreased to minimum dose or zero
Protocol: Relaxin is administered in patient-dependent doses (about 6 μg/kg) sufficient to maintain serum concentrations of at least about 1.0 ng/ml (approximating relaxin concentration during pregnancy).

scleroderma patients = assay: Monitoring of overall wellbeing in Phase I clinical trials in scleroderma patients; format: in vivo, human
Source text: Recombinant human relaxin (H2) in currently in Phase I human clinical trials in scleroderma patients. Scleroderma is a disease involving an imbalance in tissue reformation giving rise to the overproduction of collagen, and ultimately resulting in swelling and hardening of the skin (and affected organs).
Relaxin is currently the subject of Phase I clinical trials involving scleroderma patients. Scleroderma is a disease involving an imbalance in tissue reformation giving rise to the overproduction of collagen, and ultimately resulting in swelling and hardening of the skin (and affected organs). Part of the clinical testing of relaxin in scleroderma patients included the monitoring of overall wellbeing.

[1] = Serum relaxin concentrations after single subcutaneous administration to a scleroderma patient; format: in vivo, human; conditions: 10 μg/kg single subcutaneous injection
Protocol: FIG. 1 is a graph showing serum relaxin concentration (ng/ml) as measured against time after administration of a single subcutaneous dose of 10 μg/kg to a scleroderma patient.
Relaxin (10 μg/kg) was administered as a single subcutaneous injection to a scleroderma patient. Blood samples were obtained at timed intervals and measured for serum relaxin concentration (ng/ml). Peak serum concentration was attained at about 2 hours post dosing.

[2] = tested on: female subjects after childbirth; assay: Clinical trial for treatment of postpartum depression (Example 6); format: in vivo, human; conditions: osmotic pump 50 μg/kg/day subcutaneous from three days after childbirth, three months, versus placebo
Protocol: One hundred pregnant female subjects are monitored for relaxin serum concentration during the course of their pregnancy. The subjects are randomized and divided into treatment and control groups. Three days after childbirth, in the treatment group, relaxin is administered by subcutaneous placement of a relaxin-containing osmotic pump delivering 50 μg/kg/day of recombinant human relaxin (H2); in the control group, placebo is administered by subcutaneous placement of a placebo-containing osmotic pump. The subjects are required to maintain a diary documenting their mood (e.g., joy/euphoria/depression/anxiety) over a period of three months following placement of the drug/placebo. The same is documented, along with relaxin serum concentration, by weekly visits to the treating physician.

[3] = tested on: patient with severe systemic scleroderma; assay: Human antidepressant activity, dose ranging phase (Example 3); format: in vivo; conditions: 0.5 mg bolus subcutaneous
Protocol: A patient diagnosed as having severe systemic scleroderma with systemic sclerosis, was undergoing compassionate use therapy with relaxin. In a dose ranging phase of the therapy, recombinant human relaxin (H2) in a buffered citrate solution adjusted to Ph 5.0 was administered as a bolus subcutaneous injection of 0.5 mg.

[4] = Serum concentrations of relaxin in the ongoing clinical trials; format: in vivo, human
Protocol: While human dosage levels for treating depression have yet to be optimized for relaxin, generally, a daily dose is from about […] of body weight per day, preferably about […] μg/kg, and most preferably about 12.0 to 100.0 μg/kg. Generally it is sought to obtain a serum concentration of relaxin approximating or greater than normal circulating levels in pregnancy, i.e., 1.0 ng/ml, such as 0.5 to 50 ng/ml, preferably 1.0 to 20 ng/ml. […] Thus, for administration to a 70 kg person, the dosage range would be about 7.0 μg to 3.5 mg per day, preferably about […] to 2.1 mg per day, and most preferably about […] per day. The amount of relaxin administered will, of course, be dependent on the subject and the severity of the affliction, the manner and schedule of administration and the judgment of the prescribing physician. One treatment regimen can employ a higher initial dosage level (e.g., 100 to 200 μg/kg/day) followed by decreasing dosages to achieve steady relaxin serum concentration of about 1.0 ng/ml. Another treatment regimen, particularly for postpartum depression, entails administration of an amount of relaxin sufficient to attain normal pregnancy levels of relaxin (about 1.0 ng/ml) followed by gradual decreasing dosages until relaxin serum levels are no longer detectable (e.g., less than about 20 pg/ml), optionally discontinuing treatment upon reaching that dosage level.

[5] = tested on: patient with severe systemic scleroderma; assay: Human antidepressant activity, missed doses and readministration (Example 4); format: in vivo
Protocol: A patient diagnosed as having severe systemic scleroderma with systemic sclerosis, was undergoing compassionate use therapy with relaxin. They were being treated with 1.5 mg per day of recombinant human relaxin (H2) in a buffered citrate solution adjusted to pH 5.0, divided into six equal doses by subcutaneous injection to achieve a circulating concentration of about 1.0 ng/ml.

Male Lewis mice = assay: Mouse forced swimming wheel model; format: in vivo; conditions: 50 μg/kg/day subcutaneous, two hours before the test, versus placebo control
Protocol: This is a modification of the forced swimming wheel test described by Kasahara, et al., Life Sci., 52(22):1741-1749 (1993).
Male Lewis mice are divided into control and treatment groups. Two hours before the test, the control and treatment groups, respectively, receive subcutaneous injections of placebo or 50 μg/kg/day of recombinant human relaxin (H2) formulated as described in allowed U.S. Ser. No. 08/050,745. The mice are individually placed in the swimming wheel and the number of turns of the wheel is recorded for each. Antidepressant activity is indicated by an increased number of turns in the treatment group.

Substance: relaxin
- depression associated with withdrawal (patients): do not experience depression associated with precipitous withdrawal
- effect of discontinuation of therapy on mood (scleroderma patients; discontinuation of therapy): malaise described as best comparable to postpartum depression
- reversibility of malaise (scleroderma patients; resumption of treatment): reversible upon resumption of treatment
- mood during treatment (scleroderma patients; treatment of scleroderma with relaxin): mood elevations corresponded to peak dosing periods
- time to peak serum concentration [1]: about 2 hours
- signs of postpartum depression [2]: fewer signs of postpartum depression than the subjects in the control group
- patient-reported mood symptoms ([3]; about seven hours post dosing): significant anxiety/depression-like symptoms
- relaxin serum concentration ([3]; about seven hours post dosing, approximated): below 1 ng/ml
- patient-reported wellbeing ([3]; about two hours post dosing (approximating peak serum concentration)): significant improvement in wellbeing
- serum concentration ([4]; dosage of about 6.0 μg/kg, printed spread ±0.3): about 1.8 ng/ml
- serum concentration ([4]; dosage of about 12.0 μg/kg, printed spread ±0.6): ~3.6 ng/mL
- serum concentration ([4]; dosage of about 50 μg/kg, printed spread ±1.6): ~11.8 ng/mL
- mood after several missed doses ([5]; 1.5 mg per day in six subcutaneous doses, doses inadvertently missed): feelings similar to those they had previously experienced in the postpartum period
- clearing of the "blues" after readministration ([5]; 1.5 mg per day in six subcutaneous doses, readministration after missed doses): cleared within hours of readministration
- episodes of depression during uninterrupted treatment ([5]; following year, patient not withdrawn from treatment): no similar episodes of depression were experienced
- number of turns of the swimming wheel (Male Lewis mice): increased number of turns as compared to the control group

From patent US5753623A, “Method of treatment for depression” (Connetics Corporation, priority 1995, dated 1998)
